Source: patent publication US8017585B2, “CXCR4 antagonist and use thereof” (priority 2002, dated 2011)
Bridge positions count the residues as written; N and C are the ends. Square brackets hold non-standard residues; d marks the D form. Peptide text beside a SMILES is read from it. * marks the point of attachment. 2Nal = N[C@@H](Cc1ccc2ccccc2c1)C(=O)O; Benzoyl(4-F) = O=C(c1ccc(F)cc1)*; Cit = NC(=O)NCCC[C@H](N)C(=O)O

Experiments:
SUP-T1 cells = assay: Inhibition of CXCL12-induced T-cell derived leukemia cell migration (Transwell); format: cell-based, human; details: 10 nM of the antagonist; 30 nM CXCL12; 4 hours
Experimental: 30 nM of CXCL12 (R&D System Company) and 600 μL/well of buffer-A (0.1% bovine serum albumin, DMEM (GibcoBRL) containing 12 mM HEPES) containing the test compound were added to the lower chamber of Transwell filter (polycarbonate filter, 8 μm diameter, Costar Company). The test compound and human cell-derived leukemia SUP-T1 cells (purchased from American Tissue Culture Collection), and 100 μL/well of buffer A containing 2×10^6 cells/mL were added to the upper chamber. After 4 hours' incubation at 37° C. in 5% CO2 incubator, the number of the cells moved to the lower chamber was counted by Coulter counter. Control (−) indicates the migration when CXCL12 was not added. Control (+) indicates the migration when CXCL12 was added. By adding CXCL12, the migration of SUP-T1 cells was enhanced. This CXCL12-induced migration of SUP-T1 cells was inhibited by 10 nM of the antagonist, 4Fbenzoyl-TN-14003. From the foregoing, 4Fbenzoyl-TN-14003, by inhibiting the movement of T-cells at low concentrations, is considered to be useful as an inhibitory drug for chronic rheumatoid arthritis.

[1] = system: MDA-MB-231 human breast cancer cells; assay: Anti-metastatic activity, MDA-MB-231 cells implanted i.v. in SCID mice, lung metastasis; format: in vivo, CB-17 SCID mice; details: 18.2 mg/kg/day by Alzet osmotic pump, 28 days after implantation
Experimental: MDA-MB-231 human breast cancer cells (10^6 cells) were implanted intravenously into the tails of five week-old female CB-17 SCID mice (Crea Japan, Inc.). 4Fbenzoyl-TN-14003 was prepared at 80 mg/mL in physiologic saline solution, was included into sustained-releasing osmotic pumps (Alzet pump, Alza Corporation, usable for 2 week sustained-release; the dose was equivalent to 18.2 mg/kg/day), and was intradermally loaded to the backs of the mice on the date immediately preceding the implantation. Further, 14 days after the implantation, Alzet pumps containing an equal dose of the drug were additionally loaded. To the control group, Alzet pumps injected with physiological saline solution were additionally loaded. 28 days after the implantation, the mice were dissected, about 2 mL of 0.2% Evans' Blue solution was injected through windpipes, and lungs were stained. The lungs were taken out, soaked in Bouin's liquid, stained and fixed. […] In the lungs of the control group, the yellow stained portions were evenly seen, and lung metastasis was observed. On the other hand, in the 4Fbenzoyl-TN-14003 administration group, yellow stained specimens were less.

[2] = system: mouse DTH reaction induced by SRBC; assay: Mouse delayed-type hypersensitivity reaction (DTH) induced by SRBC; format: in vivo, BALB/c mice; details: Alzet osmotic pump
Experimental: Preserved blood of sheep was purchased from Nippon Bio-Supp. Center. The preserved sheep blood was cleansed twice in physiological saline solution, suspended in physiological saline solution, and used as sheep red blood cells (SRBC). As OD541 nm value of oxyhemoglobin at the time of hemolyzation of 1.0×10^9 cells/mL of the SRBC suspension by 14 parts distilled water is considered to be nearly 0.700, SRBC density was accordingly fixed.
2×10^7 cells/50 μl of SRBC were administered subcutaneously to the ankles of the left hindlimbs of BALB/c mice (male, 6 week-old, Charles River Japan, Inc.) and sensitized. After 5 days, 10^8 cells/50 μl of SRBC were administered subcutaneously to the ankles of the right hindlimbs and DTH reaction was induced. Immediately prior to and 24 hours after the induction of antigens, the thickness of the ankles of the right hindlimbs was measured by a digital micrometer (Mitutoyo Corporation CD-15B), and the increase (mm) in the thickness of ankles was adopted as the indicator of DTH reaction.
4Fbenzoyl-TN14003 was dissolved to PBS, and continuously administered using Alzet osmotic pumps (Alza, 0.5 μL/hr, 7 days persistent type). The osmotic pumps were implanted intradermally to the backs under ether anesthesia on the day before the sensitization. As the control, pumps injected with PBS were similarly implanted. 4F-benzoyl-TN14003 was administered at the doses of 4.8, 24 and 120 μg/day.
Data were expressed as mean value±standard margin of error (n=7). By Williams test, p≦0.025 was valued as significant.

mouse splenocytes = details: read-out: IC50 value, inhibition of SDF-1-induced migration of mouse splenocytes; SDF-1α 100 ng/mL; 2.5 hours
Experimental: Spleens were isolated from BALB/c mice (male, Charles River Japan, Inc.), converted to single cell suspensions, and splenocytes were prepared by crushing red blood cells.
SDF-1α (Peprotech, final concentration 100 ng/mL) was added to the lower layer of Transwell (pore size 5 μm), 1×10^6/well of the cells (100 μL) were added to the insert, and reacted at 37° C. for 2.5 hours. The cells were incubated with the drug at 37° C. for 30 minutes. Migrating reaction was made in the RPMI-1640 culture media containing 20 mmol/L HEPES, 0.5% BSA. The number of the cells migrated to the lower layer was counted by Coulter Counter. Similarly to the preceding clause, the inhibitory rate against the migration by the drug of each concentration and IC50 value were calculated.

N=C(N)NCCC[C@H](NC(=O)[C@@H]1CSSC[C@H](NC(=O)[C@H](Cc2ccc3ccccc3c2)NC(=O)[C@H](CCCNC(=N)N)NC(=O)[C@H](CCCNC(=N)N)NC(=O)c2ccc(F)cc2)C(=O)N[C@@H](Cc2ccc(O)cc2)C(=O)N[C@@H](CCCNC(N)=O)C(=O)N[C@@H](CCCCN)C(=O)N[C@H](CCCCN)C(=O)N2CCC[C@H]2C(=O)N[C@@H](Cc2ccc(O)cc2)C(=O)N[C@@H](CCCNC(=N)N)C(=O)N[C@@H](CCCNC(N)=O)C(=O)N1)C(N)=O [4F-benzoyl-TN14003, 4F-benzoyl-Arg-Arg-Nal-Cys-Tyr-Cit-Lys-DLys-Pro-Tyr-Arg-Cit-Cys-Arg-NH2] ({Benzoyl(4-F)}-RR[2Nal]CY[Cit]K[dK]PYR[Cit]CR-NH2; disulfide 4-13)
CXCL12-induced migration of SUP-T1 cells (SUP-T1 cells): inhibited | lung metastasis (eye observation of metastatic focus) [1]: the metastasis was inhibited | inhibitory rate of footpad edema (DTH) ([2]; 4.8 μg/day): 9% | inhibitory rate of footpad edema (DTH) ([2]; 24 μg/day): 31% | inhibitory rate of footpad edema (DTH) ([2]; 120 μg/day): 51% | IC50 (mouse splenocytes): 0.54 nM
